The target in the experiment is T1, purified ITK (Invitrogen PV3875) (Homo sapiens, UniProt Q08881).
T1 construct: purchased Invitrogen PV3875
T1 sequence (Q08881 1-620): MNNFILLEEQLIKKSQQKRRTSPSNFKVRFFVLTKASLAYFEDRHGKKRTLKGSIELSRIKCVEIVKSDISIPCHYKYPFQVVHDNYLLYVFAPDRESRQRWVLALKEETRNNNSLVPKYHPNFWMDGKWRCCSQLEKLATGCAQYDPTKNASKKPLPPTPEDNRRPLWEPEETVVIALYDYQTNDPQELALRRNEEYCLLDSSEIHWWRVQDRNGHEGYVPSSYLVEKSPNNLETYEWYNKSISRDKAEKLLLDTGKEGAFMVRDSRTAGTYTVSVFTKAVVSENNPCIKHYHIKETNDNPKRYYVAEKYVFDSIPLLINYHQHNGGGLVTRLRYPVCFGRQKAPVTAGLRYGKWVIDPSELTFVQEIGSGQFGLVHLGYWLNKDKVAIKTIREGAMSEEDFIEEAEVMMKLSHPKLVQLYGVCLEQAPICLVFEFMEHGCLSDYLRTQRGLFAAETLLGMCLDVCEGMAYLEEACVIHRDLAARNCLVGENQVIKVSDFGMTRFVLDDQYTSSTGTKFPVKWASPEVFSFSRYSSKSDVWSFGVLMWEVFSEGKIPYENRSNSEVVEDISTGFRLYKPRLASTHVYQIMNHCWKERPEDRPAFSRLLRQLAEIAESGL
Nature of the experiment: ITK peptide phosphorylation assay (Caliper LabChip or LCMS). The class given is biochemical. A digest of the protocol: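 Purified human ITK peptide phosphorylation, quenched with EDTA (50 mM final) for Caliper LabChip separation or TCA (5% v/v final) for UPLC-MS/MS MRM quantification. Ki derived via Morrison tight-binding equation, corrected for competitive inhibition using ATP concentration relative to Km,app.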

Where [1] appears, read: Table 2, Examples 1-140, class symbols.
Where [2] appears, read: Table 3, specific values for certain examples.

In general, Ki refers to the dissociation constant of the complex between target and ligand, obtained from inhibition or displacement. Higher therefore signals a looser hold on the target.

Turning to `COc1cncc(-c2ccc3c(C(=O)Nc4cnn(CC5CCCCC5)c4)n[nH]c3c2)c1` [Example 222, N-[1-(cyclohexylmeth-yl)pyrazol-4-yl]-6-(5-methoxy-3-pyridyl)-1H-indazole-3-carboxamide], the inhibition constant Ki (Table 1, Examples 141-279) worked out at 75.3 nM.
As to `CN(C)CC(c1ccccc1)n1cc(NC(=O)c2n[nH]c3ccccc23)cn1` (stereo not drawn) [Example 275, N-[1-[2-(dimethylamino)-1-phenyl-ethyl]pyrazol-4-yl]-1H-indazole-3-carboxamide], the Ki (Table 1, Examples 141-279) was determined as 7.83 nM.
In turn, `O=C(Nc1cnn(Cc2cccc(-c3cccnc3)c2)c1)c1n[nH]c2cc(-c3cn[nH]c3)ccc12` [Example 36, 6-(1H-Pyrazol-4-yl)-1H-indazole-3-carboxylic acid [1-(3-pyridin-3-yl-benzyl)-1H-pyrazol-4-yl]-amide] yielded a Ki under setting [1] of 0.01 to 1 nM.
On to `CNCc1ccc(Cn2cc(NC(=O)c3n[nH]c4ccccc34)cn2)cc1` [Example 112, N-(1-(4-((methylamino)methyl)benzyl)-1H-pyrazol-4-yl)-1H-indazole-3-carboxamide], for which, under setting [1], the inhibition constant (Ki) was 1 to 100 nM.
`Cc1cc2c(C(=O)Nc3cnn(Cc4cccc(C#N)c4)c3)n[nH]c2cc1-c1cccnc1` [Example 149, N-[1-[(3-cyanophenyl)meth-yl]pyrazol-4-yl]-5-methyl-6-(3-pyridyl)-1H-indazole-3-carboxamide] showed an inhibition constant Ki (Table 1, Examples 141-279) of 71.1 nM.
`Cc1ccc(Cn2cc(NC(=O)c3n[nH]c4ccccc34)cn2)cc1` [Example 53, N-(1-(4-methylbenzyl)-1H-pyrazol-4-yl)-1H-indazole-3-carboxamide] had an inhibitory constant (Ki) under setting [1] of 1 to 100 nM.
The same measure, in the same setting: as for `CC(O)CNCc1cccc(Cn2cc(NC(=O)c3n[nH]c4ccccc34)cn2)c1` (stereo not drawn) [Example 93, N-(1-(3-((2-hydroxypropylamino)methyl)benzyl)-1H-pyrazol-4-yl)-1H-indazole-3-carboxamide], the figure is 1 to 100 nM.
`CN1CCC(Cn2cc(NC(=O)c3n[nH]c4cc(-c5cn[nH]c5)ccc34)cn2)C1` (stereo not drawn) [Example 254, N-[1-[(1-methylpyrrolidin-3-yl)methyl]pyrazol-4-yl]-6-(1H-pyrazol-4-yl)-1H-indazole-3-carboxamide] came in with a Ki (Table 1, Examples 141-279) of 6.5 nM.
As for `NC(=O)c1cccc(Cn2cc(NC(=O)c3n[nH]c4cc(-c5cccnc5)ccc34)cn2)c1` [Example 31, N-[1-[(3-carbamoylphenyl)methyl]pyrazol-4-yl]-6-(3-pyridyl)-1H-indazole-3-carboxamide], the inhibition constant (Ki) under setting [1] is 1 to 100 nM.
With `COc1ccc(Cn2cc(NC(=O)c3n[nH]c4ccccc34)cn2)cc1` [Example 66, N-(1-(4-methoxybenzyl)-1H-pyrazol-4-yl)-1H-indazole-3-carboxamide], the Ki is, setting by setting: under setting [1], 1 to 100 nM; under setting [2], 37.7 nM.
For the setting “Table 1, Examples 141-279”, `Cc1cc2c(C(=O)Nc3cnn(Cc4cccc(C#N)c4)c3)n[nH]c2cc1-c1ccc(N)nc1` [Example 150, 6-(6-amino-3-pyridyl)-N-[1-[(3-cyanophenyl)meth-yl]pyrazol-4-yl]-5-methyl-1H-indazole-3-carboxamide] registered an inhibition constant Ki of 20.1 nM.
On the same count and under the same terms, with `COCCN(C)CC(c1cccnc1)n1cc(NC(=O)c2n[nH]c3cc(-c4cncc(OC)c4)ccc23)cn1` (stereo not drawn) [Example 228, N-[1-[2-[2-methoxyethyl(meth-yl)amino]-1-(3-pyridyl)ethyl]py-razol-4-yl]-6-(5-methoxy-3-pyridyl)-1H-indazole-3-carboxamide] the figure was 5.54 nM.
`O=C(Nc1cnn(Cc2cccc(C(=O)N3CCC(O)CC3)c2)c1)c1n[nH]c2cc(-c3cn[nH]c3)ccc12` [Example 22, 6-(1H-Pyrazol-4-yl)-1H-indazole-3-carboxylic acid {1-[3-(4-hydroxy-1-piperidine-1-carbonyl)-benzyl]-1H-pyrazol-4-yl}amide] gave an inhibition constant Ki under setting [1] of 1 to 100 nM.
Same read-out and setting: as for `Nc1cc(Cn2cc(NC(=O)c3n[nH]c4cc(-c5cccnc5)ccc34)cn2)ccn1` [Example 32, N-[1-[(2-amino-4-pyridyl)methyl]pyrazol-4-yl]-6-(3-pyridyl)-1H-indazole-3-carboxamide], the figure is 1 to 100 nM.
For `O=C(Nc1cnn(Cc2ccccn2)c1)c1n[nH]c2cc(-c3cn[nH]c3)ccc12` [Example 220, 6-(1H-pyrazol-4-yl)-N-[1-(2-pyridylmethyl)py-razol-4-yl]-1H-indazole-3-carboxamide], where the note is “Table 1, Examples 141-279”, the affinity, expressed as Ki, was 2.93 nM.
`N#Cc1cccc(Cn2cc(NC(=O)c3n[nH]c4ccc(F)cc34)cn2)c1` [Example 7, N-(1-(3-cyanobenzyl)-1H-pyrazol-4-yl)-5-fluoro-1H-indazole-3-carboxamide]: under setting [1], the inhibition constant (Ki) was 1 to 100 nM.
In turn, `N#Cc1ccc2c(C(=O)Nc3cnn(Cc4ccccc4)c3)n[nH]c2c1` [Example 206, N-(1-benzylpyrazol-4-yl)-6-cyano-1H-indazole-3-carboxamide] came in with an inhibitory constant (Ki) (Table 1, Examples 141-279) of 129 nM.
`Cn1cnc(-c2ccc3c(C(=O)Nc4cnn(Cc5ccccc5)c4)n[nH]c3c2)c1` [Example 87, N-(1-benzyl-1H-pyrazol-4-yl)-6-(1-methyl-1H-imidazol-4-yl)-1H-indazole-3-carboxamide]: the inhibition constant (Ki) under setting [1] lay in the range of 1 to 100 nM.
Take `O=C(Nc1cnn(CC2CCOC2)c1)c1n[nH]c2cc(-c3cn[nH]c3)ccc12` (stereo not drawn) [Example 235, 6-(1H-pyrazol-4-yl)-N-[1-(tetrahydrofuran-3-ylmethyl)pyrazol-4-yl]-1H-indazole-3-carboxamide]: affinity (Table 1, Examples 141-279) was put at a Ki of 4.64 nM.
Regarding `CNc1ncc(-c2ccc3c(C(=O)Nc4cnn(Cc5ccccc5)c4)n[nH]c3c2)s1` [Example 190, N-(1-benzylpyrazol-4-yl)-6-[2-(methylamino)thi-azol-5-yl]-1H-indazole-3-carboxamide], under “Table 1, Examples 141-279”, affinity was put at a Ki of 18.5 nM.
Under setting [1], `CN(C)CCNCc1cccc(Cn2cc(NC(=O)c3n[nH]c4ccccc34)cn2)c1` [Example 102, N-(1-(3-((2-(dimethylamino)ethylamino)methyl)benzyl)-1H-pyrazol-4-yl)-1H-indazole-3-carboxamide] registered an inhibition constant (Ki) of 1 to 100 nM.
As for `CC(C)(c1cccc(C#N)c1)n1cc(NC(=O)c2n[nH]c3ccccc23)cn1` [Example 77, N-(1-(2-(3-Cyanophenyl)propan-2-yl)-1H-pyrazol-4-yl)-1H-indazole-3-carboxamide], the Ki is, setting by setting: under setting [1], over 100 nM; under setting [2], 307 nM.
Consider `O=C(Nc1cnn(C(CCN2CCOCC2)c2ccccc2)c1)c1n[nH]c2cc(-c3cn[nH]c3)ccc12` (stereo not drawn) [Example 162, N-[1-(3-morpholino-1-phenyl-propyl)pyrazol-4-yl]-6-(1H-pyrazol-4-yl)-1H-indazole-3-carboxamide], for which the affinity (Table 1, Examples 141-279), expressed as Ki, was 0.28 nM.
Same read-out and setting: with `CN(C)CCC(c1ccccc1)n1cc(NC(=O)c2n[nH]c3ccccc23)cn1` (stereo not drawn) [Example 267, N-[1-[3-(dimethylamino)-1-phenyl-propyl]pyrazol-4-yl]-1H-indazole-3-carboxamide] the figure was 76.9 nM; with `N#Cc1cccc(Cn2cc(NC(=O)c3n[nH]c4cc(-c5cncnc5)c(F)cc34)cn2)c1` [Example 154, N-[1-[(3-cyanophenyl)meth-yl]pyrazol-4-yl]-5-fluoro-6-pyrimidin-5-yl-1H-indazole-3-carboxamide], 112 nM.
Take `O=C(Nc1cnn(Cc2ccc(Cl)cc2)c1)c1n[nH]c2ccccc12` [Example 58, N-(1-(4-chlorobenzyl)-1H-pyrazol-4-yl)-1H-indazole-3-carboxamide]: the Ki reads like this: under setting [1], 1 to 100 nM; under setting [2], 39.2 nM.
Molecule `CCCNCc1cccc(Cn2cc(NC(=O)c3n[nH]c4ccccc34)cn2)c1` [Example 97, N-(1-(3-((propylamino)methyl)benzyl)-1H-pyrazol-4-yl)-1H-indazole-3-carboxamide] yielded a Ki under setting [1] of 1 to 100 nM.
On to `N#Cc1cncc(-c2ccc3c(C(=O)Nc4cnn(Cc5cscn5)c4)n[nH]c3c2)c1` [Example 44, 6-(5-Cyano-pyridin-3-yl)-1H-indazole-3-carboxylic acid (1-thiazol-4-ylmethyl-1H-pyrazol-4-yl)-amide], for which the inhibition constant Ki under setting [1] was in the range of 1 to 100 nM.
`O=C(Nc1cnn(Cc2cc(-c3ccccc3)on2)c1)c1n[nH]c2cc(-c3cn[nH]c3)ccc12` [Example 16, 6-(1H-Pyrazol-4-yl)-1H-indazole-3-carboxylic acid [1-(5-phenyl-isoxazol-3-ylmethyl)-1H-pyrazol-4-yl]-amide]: the Ki is 1 to 100 nM under setting [1] and 6.9 nM under setting [2].
Under “Table 1, Examples 141-279”, `O=C(Nc1cnn([C@H](CO)c2cscn2)c1)c1n[nH]c2cc(-c3cn[nH]c3)ccc12` [Example 178, N-[1-[(1S)-2-hydroxy-1-thiazol-4-yl-ethyl]pyrazol-4-yl]-6-(1H-pyrazol-4-yl)-1H-indazole-3-carboxamide] gave a Ki of 6.19 nM.
As to `CNCc1cccc(Cn2cc(NC(=O)c3n[nH]c4ccccc34)cn2)c1` [Example 101, N-(1-(3-((methylamino)methyl)benzyl)-1H-pyrazol-4-yl)-1H-indazole-3-carboxamide], the Ki under setting [1] is 1 to 100 nM.
The molecule `N#Cc1cccc(Cn2cc(NC(=O)c3n[nH]c4cc(-c5cc[nH]n5)c(F)cc34)cn2)c1` [Example 155, N-[1-[(3-cyanophenyl)meth-yl]pyrazol-4-yl]-5-fluoro-6-(1H-pyrazol-3-yl)-1H-indazole-3-carboxamide] registered a Ki (Table 1, Examples 141-279) of 99.9 nM.

These data come from patent US20140309210A1, “INDAZOLE COMPOUNDS, COMPOSITIONS AND METHODS OF USE THEREOF” (Genentech, Inc., priority 2011, published 2014).
